“Also recorded” adds a separate entry of the source. Like-named read-outs stand apart in the source and are kept apart here.
Assays:
human P2X4 [1] = target: T1, human P2X4 (Homo sapiens, UniProt Q99571); experiment: Intracellular Ca2+ assay (Fura-2, FlexStation 3), agonist responses in 1321N1 cells stably expressing human P2X4; type: cell-based; settings: for Emax: 1321-N1, read-out: Efficacy Human (maximal response to ligand as a percentage of maximal response to ATP)
T1 construct: expressed in transfected cells
T1 sequence (Q99571 1-388): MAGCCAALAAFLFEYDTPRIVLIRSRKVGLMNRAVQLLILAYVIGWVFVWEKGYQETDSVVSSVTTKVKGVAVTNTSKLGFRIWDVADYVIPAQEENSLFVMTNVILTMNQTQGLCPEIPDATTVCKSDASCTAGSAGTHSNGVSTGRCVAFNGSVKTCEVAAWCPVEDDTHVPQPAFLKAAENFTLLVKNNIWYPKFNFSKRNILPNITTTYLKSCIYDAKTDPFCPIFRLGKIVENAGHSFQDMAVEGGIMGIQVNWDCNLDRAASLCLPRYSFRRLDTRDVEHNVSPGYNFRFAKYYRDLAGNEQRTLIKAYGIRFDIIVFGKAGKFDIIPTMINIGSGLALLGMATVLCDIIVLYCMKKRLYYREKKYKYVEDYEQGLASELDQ

mouse P2X4 [2] = target: T2, mouse P2X4 (Mus musculus, UniProt Q9JJX6); experiment: Intracellular Ca2+ assay (Fura-2, FlexStation 3), agonist responses in 1321N1 cells stably expressing mouse P2X4; type: cell-based; settings: for Emax: 1321-N1, read-out: Efficacy Mouse (maximal response to ligand as a percentage of maximal response to ATP); for EC50: 1321N1 cells expressing mouse P2X4, peak Ca2+ response
T2 construct: expressed in transfected cells
T2 sequence (Q9JJX6 1-388): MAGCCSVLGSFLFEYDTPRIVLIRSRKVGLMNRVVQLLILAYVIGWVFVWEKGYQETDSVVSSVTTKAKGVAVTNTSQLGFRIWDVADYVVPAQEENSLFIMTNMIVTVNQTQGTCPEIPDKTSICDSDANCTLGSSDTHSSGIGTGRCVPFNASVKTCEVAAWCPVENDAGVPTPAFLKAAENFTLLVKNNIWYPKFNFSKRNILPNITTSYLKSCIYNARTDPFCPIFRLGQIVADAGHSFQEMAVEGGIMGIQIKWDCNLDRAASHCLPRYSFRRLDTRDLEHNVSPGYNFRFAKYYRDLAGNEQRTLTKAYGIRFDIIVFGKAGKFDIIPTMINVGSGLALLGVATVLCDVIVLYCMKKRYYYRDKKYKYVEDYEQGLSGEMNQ

human P2X4 [3] = target: T1, human P2X4; experiment: Intracellular Ca2+ assay, antagonists against Ca2+ responses evoked by EC80 ATP (1.5 µM) in 1321N1 cells expressing human P2X4; type: cell-based
mouse P2X4 [4] = target: T2, mouse P2X4; experiment: Intracellular Ca2+ assay, antagonists against Ca2+ responses evoked by EC80 ATP (1.5 µM) in 1321N1 cells expressing mouse P2X4; type: cell-based
rat P2X4 = settings: cited from earlier work
human P2X4 [5] = target: T1, human P2X4; settings: cited from earlier work
mouse P2X4 [6] = target: T2, mouse P2X4; settings: cited from earlier work
[7] = 1321N1 cells expressing human P2X4, peak Ca2+ response, read-out: EC50 Human
[8] = 30 µM antagonist, vs 1.5 µM ATP
[9] = 10 µM antagonist, vs 1.5 µM ATP
[10] = 100 µM antagonist, vs 1.5 µM ATP
[11] = 20 µM antagonist, vs 1.5 µM ATP

CSc1nc(N)c2ncn([C@@H]3O[C@H](COP(=O)(O)OP(=O)(O)OP(=O)(O)O)[C@@H](O)[C@H]3O)c2n1 [2-MeSATP, 2-(Methylthio)adenosine 5′-triphosphate]
Emax (human P2X4 [1]): 57 ± 6%
EC50 (human P2X4 [1]; [7]): 2 ± 0.2 µM
Agonist action at human P2X4 (in words) (human P2X4 [1]; human P2X4): partial agonist
Emax (mouse P2X4 [2]): 65 ± 2%
EC50 (mouse P2X4 [2]): 8 ± 2 µM
Agonist action at mouse P2X4 (in words) (mouse P2X4 [2]; mouse P2X4): partial agonist

O=C1CN=C(c2cccc(Br)c2)c2oc3ccccc3c2N1 [5-BDBD, 5-(3-Bromophenyl)-1,3-dihydro-2H-benzofuro[3,2-e]-1,4-diazepin-2-one]
% inhibition Human (human P2X4 [3]; [8]): 97 ± 3% (30 µM)
Antagonist action at human P2X4 (in words) (human P2X4 [3]; vs 1.5 µM ATP): completely inhibit
% inhibition Mouse (mouse P2X4 [4]; [8]): 10 ± 8% (30 µM)
Antagonist action at mouse P2X4 (in words) (mouse P2X4 [4]; up to 100 µM): insensitive
Antagonist action at mouse P2X4 (in words) (mouse P2X4 [4]; vs 1.5 µM ATP): not antagonised; also recorded: not an antagonist
Antagonist action at rat P2X4 (literature) (rat P2X4; ref 37): sensitivity

Nc1ncnc2c1ncn2[C@@H]1O[C@H](COP(=O)(O)OP(=O)(O)OP(=O)(O)O)[C@@H](O)[C@H]1O [ATP, adenosine 5′-triphosphate]
EC50 (human P2X4 [1]; [7]): 0.747 ± 0.18 µM
EC80 (human P2X4 [1]; human P2X4): 1.5 ± 0.3 µM
EC50 (mouse P2X4 [2]): 0.565 ± 0.085 µM

Nc1ncnc2c1ncn2[C@@H]1O[C@H](CO[P@](=O)(O)O[P@](=O)(O)O[P@@](=O)(O)S)[C@@H](O)[C@H]1O [ATPγS, Adenosine-5′-O-(3-thio-triphosphate)]
Emax (human P2X4 [1]): 9 ± 3%
Agonist action at human P2X4 (in words) (human P2X4 [1]; human P2X4): did not activate; also recorded: not activated
Agonist action at human P2X4 (in words) (human P2X4 [1]; up to 300 µM): does not activate
Emax (mouse P2X4 [2]): 45 ± 4%
EC50 (mouse P2X4 [2]): 18 ± 1 µM
Agonist action at mouse P2X4 (in words) (mouse P2X4 [2]; mouse P2X4): partial agonist
Agonist action at human P2X4 (literature) (human P2X4 [5]; ref 33): partial agonism

Nc1ncnc2c1ncn2[C@@H]1O[C@H](COP(=O)(O)OP(=O)(O)OP(=O)(O)OP(=O)(O)OC[C@H]2O[C@@H](n3cnc4c(N)ncnc43)[C@H](O)[C@@H]2O)[C@@H](O)[C@H]1O [Ap4A, Diadenosine tetraphosphate]
Agonist action at human P2X4 (in words) (human P2X4 [1]; tested up to 1 mM): did not activate
Agonist action at mouse P2X4 (in words) (mouse P2X4 [2]; mouse P2X4): not an agonist
Agonist action at mouse P2X4 (in words) (mouse P2X4 [2]; tested up to 1 mM): did not activate
Agonist action at human P2X4 (literature) (human P2X4 [5]; ref 35, ref 17): activation of human P2X4 by Ap4A at nanomolar concentrations
Agonist action at mouse P2X4 (literature) (mouse P2X4 [6]; ref 17): activates mouse P2X4 at low micromolar concentrations
Agonist action at mouse P2X4 (literature) (mouse P2X4 [6]; ref 35): insensitive
Agonist potency at rat P2X4 (literature) (rat P2X4; ref 36): equipotent with ATP

NS(=O)(=O)c1cc(NC(=O)Cc2ccccc2)ccc1Oc1cccc(Cl)c1 [BAY-1797, N-[4-(3-Chlorophenoxy)-3-sulfamoylphenyl]-2-phenylacetamide]
% inhibition Mouse (mouse P2X4 [4]; [9]): 99 ± 2% (10 µM)

CC(C)c1cc(Br)c(NC(=O)Nc2cccnc2)c(Br)c1 [BX-430, 1-(2,6-Dibromo-4-isopropyl-phenyl)-3-(3-pyridyl)urea]
% inhibition Human (human P2X4 [3]; [9]): 96 ± 3% (10 µM)
Antagonist action at human P2X4 (in words) (human P2X4 [3]; vs 1.5 µM ATP): abolished receptor activity
% inhibition Mouse (mouse P2X4 [4]; [9]): 0 ± 3% (10 µM)
Antagonist action at mouse P2X4 (in words) (mouse P2X4 [4]; up to 100 µM): insensitive
Antagonist action at mouse P2X4 (in words) (mouse P2X4 [4]; vs 1.5 µM ATP): not antagonised

Nc1ncnc2c1ncn2C1OC(COP(=O)(O)OP(=O)(O)OP(=O)(O)O)C(OC(=O)c2ccc(C(=O)c3ccccc3)cc2)C1O (stereo not drawn) [BzATP, 2′(3′)-O-(4-Benzoylbenzoyl)adenosine 5′-triphosphate]
Emax (human P2X4 [1]): 35 ± 4%
EC50 (human P2X4 [1]; [7]): 11 ± 2 µM
Agonist action at human P2X4 (in words) (human P2X4 [1]; human P2X4): partial agonist
Emax (mouse P2X4 [2]): 27 ± 2%
EC50 (mouse P2X4 [2]): 24 ± 16 µM
Agonist action at mouse P2X4 (in words) (mouse P2X4 [2]; mouse P2X4): partial agonist

Nc1ccn([C@@H]2O[C@H](COP(=O)(O)OP(=O)(O)OP(=O)(O)O)[C@@H](O)[C@H]2O)c(=O)n1 [CTP, Cytidine 5′-triphosphate]
Emax (human P2X4 [1]): 67 ± 6%
Agonist action at human P2X4 (in words) (human P2X4 [1]; human P2X4): partial agonist
Emax (mouse P2X4 [2]): 89 ± 5%
Agonist action at mouse P2X4 (in words) (mouse P2X4 [2]; mouse P2X4): full agonist

Cc1nc(/N=N/c2ccc(S(=O)(=O)O)cc2S(=O)(=O)O)c(COP(=O)(O)O)c(C=O)c1O [PPADS, Pyridoxalphosphate-6-azophenyl-2′,4′-disulfonic acid]
% inhibition Human (human P2X4 [3]; [10]): 98 ± 3% (100 µM)
% inhibition Mouse (mouse P2X4 [4]; [10]): 87 ± 16%(100 µM)
Antagonist action at human P2X4 (literature) (human P2X4 [5]; ref 16-18): inhibit the human P2X4 receptor fully

Cc1ccc(S(=O)(=O)N2c3ccccc3Oc3ccccc32)cc1 [PSB-12062, N-(p-methylphenylsulfonyl)phenoxazine]
% inhibition Human (human P2X4 [3]; [11]): 99 ± 4% (20 µM)
Antagonist action at human P2X4 (in words) (human P2X4 [3]; vs 1.5 µM ATP): abolished activity
% inhibition Mouse (mouse P2X4 [4]; [11]): 59 ± 7% (20 µM)
IC50 (mouse P2X4 [4]; read-out: IC50 Mouse): 3 ± 2 µM

Nc1ncnc2c1ncn2[C@@H]1O[C@H](COP(=O)(O)OP(=O)(O)OP(=O)(O)O)[C@H]2OC3(O[C@H]21)C([N+](=O)[O-])=CC(=[N+]([O-])[O-])C=C3[N+](=O)[O-] (stereo partly drawn) [TNP-ATP, 2′,3′-O-(2,4,6-Trinitrophenyl)-ATP]
Antagonist action at human P2X4 (in words) (human P2X4 [3]): completely inhibited
% inhibition Human (human P2X4 [3]; [10]): 94 ± 1% (100 µM)
IC50 (mouse P2X4 [4]): 93 ± 4 µM
% inhibition Mouse (mouse P2X4 [4]; [10]): 43 ± 7% (100 µM)

Cc1ccc(C(=O)Nc2ccc(S(=O)(=O)O)c3cc(S(=O)(=O)O)cc(S(=O)(=O)O)c23)cc1NC(=O)c1cccc(NC(=O)Nc2cccc(C(=O)Nc3cc(C(=O)Nc4ccc(S(=O)(=O)O)c5cc(S(=O)(=O)O)cc(S(=O)(=O)O)c45)ccc3C)c2)c1 [suramin, 8,8′-{Carbonylbis[imino-3,1-phenylenecarbonylimino(4-methyl-3,1-phenylene)carbonylimino]}di(1,3,5-naphthalenetrisulfonic acid)]
Antagonist action at human P2X4 (in words) (human P2X4 [3]; up to 100 µM): completely insensitive
Antagonist action at mouse P2X4 (in words) (mouse P2X4 [4]; up to 100 µM): completely insensitive

Nc1ncnc2c1ncn2C1OC(COP(=O)(O)CP(=O)(O)OP(=O)(O)O)C(O)C1O (stereo not drawn) [α,β-meATP, α,β-Methyleneadenosine 5′-triphosphate]
EC50 (human P2X4 [1]): 7 ± 0.7 µM
Emax (human P2X4 [1]): 15 ± 2%
Agonist action at human P2X4 (in words) (human P2X4 [1]; human P2X4): can be activated; also recorded: weak partial agonist
Emax (mouse P2X4 [2]): 5 ± 2%
Agonist action at mouse P2X4 (in words) (mouse P2X4 [2]; mouse P2X4): no significant effect

C#CCNP(=O)(O)OP(=O)(O)OP(=O)(O)OCC1OC(n2cnc3c(N)ncnc32)C(O)C1O (stereo not drawn) [γ-[(Propargyl)-imido]-ATP, Adenosine-5′-[γ-(propargyl)-imido]triphosphate]
Emax (human P2X4 [1]): 85 ± 5%
EC50 (human P2X4 [1]; [7]): 20 ± 2 µM
Agonist action at human P2X4 (in words) (human P2X4 [1]; human P2X4): partial agonism
Emax (mouse P2X4 [2]): 90 ± 11%
EC50 (mouse P2X4 [2]): 20 ± 2 µM
Agonist action at mouse P2X4 (in words) (mouse P2X4 [2]; mouse P2X4): full agonist

From paper PMC11554605, “Pharmacological differences between human and mouse P2X4 receptor explored using old and new tools” (Purinergic Signalling, 2024)
